From ChEMBL document CHEMBL3044541, “Control of crown rot-causing fungal pathogens of banana by inorganic salts and a surfactant” (Crop Prot, 2007)
Activity calls are given as the source filed them. The rule behind the calls is not given here.

How the values were obtained:
Thielaviopsis paradoxa [1] = experiment: Antifungal activity against Ceratocystis paradoxa assessed as inhibition of conidium germination at 5 g/l incubated for 15 min followed by compound washout measured after 2 days by microscopic analysis in absence of surfactant APSA 80; assay type: functional, organism-based
Colletotrichum musae [2] = experiment: Antifungal activity against Colletotrichum musae assessed as inhibition of conidium germination at 5 g/l incubated for 15 min followed by compound washout measured after 2 days by microscopic analysis in absence of surfactant APSA 80; assay type: functional, organism-based
Lasiodiplodia theobromae [3] = experiment: Antifungal activity against Lasiodiplodia theobromae assessed as inhibition of conidium germination at 5 g/l incubated for 15 min followed by compound washout measured after 2 days by microscopic analysis in absence of surfactant APSA 80; assay type: functional, organism-based
Colletotrichum musae [4] = experiment: Growth inhibition of Colletotrichum musae assessed as concentration required for inhibition of mycelial growth incubated for 15 min followed by compound washout measured after 7 days in presence of surfactant APSA 80; assay type: functional
Thielaviopsis paradoxa [5] = experiment: Growth inhibition of Ceratocystis paradoxa assessed as inhibition of mycelial growth up to 160 g/l incubated for 15 min followed by compound washout measured after 7 days in absence of surfactant APSA 80; assay type: functional, organism-based
Lasiodiplodia theobromae [6] = experiment: Growth inhibition of Lasiodiplodia theobromae assessed as inhibition of mycelial growth up to 160 g/l incubated for 15 min followed by compound washout measured after 7 days in absence of surfactant APSA 80; assay type: functional, organism-based
Lasiodiplodia theobromae [7] = experiment: Growth inhibition of Lasiodiplodia theobromae assessed as concentration required for inhibition of mycelial growth incubated for 15 min followed by compound washout measured after 7 days in presence of surfactant APSA 80; assay type: functional
Colletotrichum musae [8] = experiment: Antifungal activity against Colletotrichum musae assessed as inhibition of conidium germination at 5 g/l incubated for 15 min followed by compound washout measured after 7 days by microscopic analysis in presence of surfactant APSA 80; assay type: functional, organism-based
Lasiodiplodia theobromae [9] = experiment: Antifungal activity against Lasiodiplodia theobromae assessed as inhibition of conidium germination at 5 g/l incubated for 15 min followed by compound washout measured after 7 days by microscopic analysis in presence of surfactant APSA 80; assay type: functional, organism-based
Fusarium verticillioides [10] = experiment: Antifungal activity against Fusarium verticillioides assessed as inhibition of conidium germination at 5 g/l incubated for 15 min followed by compound washout measured after 2 days by microscopic analysis in absence of surfactant APSA 80; assay type: functional, organism-based
Fusarium verticillioides [11] = experiment: Antifungal activity against Fusarium verticillioides assessed as inhibition of conidium germination at 5 g/l incubated for 15 min followed by compound washout measured after 7 days by microscopic analysis in presence of surfactant APSA 80; assay type: functional, organism-based
Thielaviopsis paradoxa [12] = experiment: Antifungal activity against Ceratocystis paradoxa assessed as inhibition of conidium germination at 6 g/l incubated for 15 min followed by compound washout measured after 2 days by microscopic analysis in absence of surfactant APSA 80; assay type: functional, organism-based
Colletotrichum musae [13] = experiment: Antifungal activity against Colletotrichum musae assessed as inhibition of conidium germination at 6 g/l incubated for 15 min followed by compound washout measured after 2 days by microscopic analysis in absence of surfactant APSA 80; assay type: functional, organism-based
Lasiodiplodia theobromae [14] = experiment: Antifungal activity against Lasiodiplodia theobromae assessed as inhibition of conidium germination at 6 g/l incubated for 15 min followed by compound washout measured after 2 days by microscopic analysis in absence of surfactant APSA 80; assay type: functional, organism-based
Colletotrichum musae [15] = experiment: Growth inhibition of Colletotrichum musae assessed as inhibition of mycelial growth up to 160 g/l incubated for 15 min followed by compound washout measured after 7 days in presence of surfactant APSA 80; assay type: functional, organism-based
Lasiodiplodia theobromae [16] = experiment: Growth inhibition of Lasiodiplodia theobromae assessed as inhibition of mycelial growth up to 160 g/l incubated for 15 min followed by compound washout measured after 7 days in presence of surfactant APSA 80; assay type: functional, organism-based
Musa acuminata AAA Group [17] = experiment: Phytotoxicity against Musa acuminata AAA Group (Cavendish banana) assessed as skin burn incubated for 15 min followed by compound washout measured after 1 to 3 weeks in presence of surfactant APSA 80 relative to control; assay type: organism-based; settings: in vivo
Musa acuminata AAA Group [18] = experiment: Phytotoxicity against Musa acuminata AAA Group (Cavendish banana) assessed as discoloration incubated for 15 min followed by compound washout measured after 1 to 3 weeks in presence of surfactant APSA 80 relative to control; assay type: organism-based; settings: in vivo
Colletotrichum musae [19] = experiment: Antifungal activity against Colletotrichum musae assessed as inhibition of conidium germination at 6 g/l incubated for 15 min followed by compound washout measured after 7 days by microscopic analysis in presence of surfactant APSA 80; assay type: functional, organism-based
Thielaviopsis paradoxa [20] = experiment: Antifungal activity against Ceratocystis paradoxa assessed as inhibition of conidium germination at 6 g/l incubated for 15 min followed by compound washout measured after 7 days by microscopic analysis in presence of surfactant APSA 80; assay type: functional, organism-based
Lasiodiplodia theobromae [21] = experiment: Antifungal activity against Lasiodiplodia theobromae assessed as inhibition of conidium germination at 6 g/l incubated for 15 min followed by compound washout measured after 7 days by microscopic analysis in presence of surfactant APSA 80; assay type: functional, organism-based
Fusarium verticillioides [22] = experiment: Antifungal activity against Fusarium verticillioides assessed as inhibition of conidium germination at 6 g/l incubated for 15 min followed by compound washout measured after 2 days by microscopic analysis in absence of surfactant APSA 80; assay type: functional, organism-based
Fusarium verticillioides [23] = experiment: Antifungal activity against Fusarium verticillioides assessed as inhibition of conidium germination at 6 g/l incubated for 15 min followed by compound washout measured after 7 days by microscopic analysis in presence of surfactant APSA 80; assay type: functional, organism-based
Fusarium verticillioides [24] = experiment: Growth inhibition of Fusarium verticillioides assessed as concentration required for inhibition of mycelial growth incubated for 15 min followed by compound washout measured after 7 days in absence of surfactant APSA 80; assay type: functional
Colletotrichum musae [25] = experiment: Growth inhibition of Colletotrichum musae assessed as concentration required for inhibition of mycelial growth incubated for 15 min followed by compound washout measured after 7 days in absence of surfactant APSA 80; assay type: functional
Lasiodiplodia theobromae [26] = experiment: Growth inhibition of Lasiodiplodia theobromae assessed as concentration required for inhibition of mycelial growth incubated for 15 min followed by compound washout measured after 7 days in absence of surfactant APSA 80; assay type: functional

With `[Ca+2].[Cl-].[Cl-]` [CALCIUM CHLORIDE] the inhibition (Thielaviopsis paradoxa [1]) was “Active”, the inhibition (Colletotrichum musae [2]) was “Active” and the inhibition (Lasiodiplodia theobromae [3]) was “Active”. The Activity (Colletotrichum musae [4]) was 140 g/L, the Activity (Thielaviopsis paradoxa [5]) was “inactive” and the Activity (Lasiodiplodia theobromae [6]) was “inactive”. For the same compound, the Activity (Lasiodiplodia theobromae [7]) was 100 g/L, the inhibition (Colletotrichum musae [8]) was “Active” and the inhibition (Lasiodiplodia theobromae [9]) was “Active”. For the same compound, the inhibition (Fusarium verticillioides [10]) was “Active” and the inhibition (Fusarium verticillioides [11]) was “Active”.

For `[Cl-].[Na+]` [SODIUM CHLORIDE], the inhibition (Thielaviopsis paradoxa [12]) was “Active”, the inhibition (Colletotrichum musae [13]) was “Active” and the inhibition (Lasiodiplodia theobromae [14]) was “Active”. The Activity (Colletotrichum musae [15]) was “inactive”, the Activity (Thielaviopsis paradoxa [5]) was “inactive” and the Activity (Lasiodiplodia theobromae [16]) was “inactive”. The Activity (Lasiodiplodia theobromae [6]) was “inactive”, the Activity (Musa acuminata AAA Group [17]) was “Toxic” and the Activity (Musa acuminata AAA Group [18]) was “Toxic”. For the same compound, the inhibition (Colletotrichum musae [19]) was “Active”, the inhibition (Thielaviopsis paradoxa [20]) was “Active” and the inhibition (Lasiodiplodia theobromae [21]) was “Active”. For the same compound, the inhibition (Fusarium verticillioides [22]) was “Active” and the inhibition (Fusarium verticillioides [23]) was “Active”.

In the case of `[Na+].[O-]Cl` [SODIUM HYPOCHLORITE], the inhibition (Thielaviopsis paradoxa [1]) is reported as “Active”, the inhibition (Colletotrichum musae [2]) is reported as “Active” and the inhibition (Lasiodiplodia theobromae [3]) is reported as “Active”. The Activity (Fusarium verticillioides [24]) was 70 g/L, the Activity (Colletotrichum musae [25]) was 50 g/L and the Activity (Lasiodiplodia theobromae [26]) was 20 g/L. The Activity (Lasiodiplodia theobromae [7]) was 20 g/L, the Activity (Musa acuminata AAA Group [17]) was “Toxic” and the Activity (Musa acuminata AAA Group [18]) was “Toxic”. For the same compound, the inhibition (Colletotrichum musae [8]) was “Active”, the inhibition (Lasiodiplodia theobromae [9]) was “Active” and the inhibition (Fusarium verticillioides [10]) was “Active”. The inhibition (Fusarium verticillioides [11]) was “Active”.
